According to PubChem BioAssay (NCI):
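GI50 is the concentration that inhibits growth by half. TGI marks complete inhibition of growth.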

Legend:
Assay in all cases: growth of human tumour cells (NCI), 384-well format
786-0 renal = test system: 786-0 renal
A498 renal = test system: A498 renal
A549 NSCLC = test system: A549 NSCLC
ACHN renal = test system: ACHN renal
BT-549 breast = test system: BT-549 breast
CAKI-1 renal = test system: CAKI-1 renal
CCRF-CEM leukemia = test system: CCRF-CEM leukemia
COLO 205 colon = test system: COLO 205 colon
DU-145 prostate = test system: DU-145 prostate
EKVX NSCLC = test system: EKVX NSCLC
HCC-2998 colon = test system: HCC-2998 colon
HCT-116 colon = test system: HCT-116 colon
HCT-15 colon = test system: HCT-15 colon
HL-60(TB) leukemia = test system: HL-60(TB) leukemia
HOP-62 NSCLC = test system: HOP-62 NSCLC
HOP-92 NSCLC = test system: HOP-92 NSCLC
HS 578T breast = test system: HS 578T breast
HT29 colon = test system: HT29 colon
IGROV1 ovarian = test system: IGROV1 ovarian
K-562 leukemia = test system: K-562 leukemia
KM12 colon = test system: KM12 colon
LOX IMVI melanoma = test system: LOX IMVI melanoma
M14 melanoma = test system: M14 melanoma
MALME-3M melanoma = test system: MALME-3M melanoma
MCF7 breast = test system: MCF7 breast
MDA-MB-231 breast = test system: MDA-MB-231 breast
MDA-MB-435 melanoma = test system: MDA-MB-435 melanoma
MDA-MB-468 breast = test system: MDA-MB-468 breast
MOLT-4 leukemia = test system: MOLT-4 leukemia
NCI-H226 lung = test system: NCI-H226 lung
NCI-H23 lung = test system: NCI-H23 lung
NCI-H322M lung = test system: NCI-H322M lung
NCI-H460 NSCLC = test system: NCI-H460 NSCLC
NCI-H522 lung = test system: NCI-H522 lung
NCI/ADR-RES ovarian = test system: NCI/ADR-RES ovarian
OVCAR-3 ovarian = test system: OVCAR-3 ovarian
OVCAR-4 ovarian = test system: OVCAR-4 ovarian
OVCAR-5 ovarian = test system: OVCAR-5 ovarian
OVCAR-8 ovarian = test system: OVCAR-8 ovarian
PC-3 prostate = test system: PC-3 prostate
RPMI-8226 leukemia = test system: RPMI-8226 leukemia
RXF 393 renal = test system: RXF 393 renal
SF-268 CNS = test system: SF-268 CNS
SF-295 CNS = test system: SF-295 CNS
SF-539 CNS = test system: SF-539 CNS
SK-MEL-2 melanoma = test system: SK-MEL-2 melanoma
SK-MEL-28 melanoma = test system: SK-MEL-28 melanoma
SK-MEL-5 melanoma = test system: SK-MEL-5 melanoma
SK-OV-3 ovarian = test system: SK-OV-3 ovarian
SN12C renal = test system: SN12C renal
SNB-19 CNS = test system: SNB-19 CNS
SNB-75 CNS = test system: SNB-75 CNS
SW-620 colon = test system: SW-620 colon
T-47D breast = test system: T-47D breast
TK-10 renal = test system: TK-10 renal
U251 glioblastoma = test system: U251 glioblastoma
UACC-257 melanoma = test system: UACC-257 melanoma
UACC-62 melanoma = test system: UACC-62 melanoma
UO-31 renal = test system: UO-31 renal

For `Nc1ncnc2c1c(-c1cccc(OCc3ccccc3)c1)cn2C1CC(CN2CCCC2)C1` (stereo not drawn), the GI50 ([…]-0 renal) was 1.69 µM, the TGI (786-0 renal) was 3.08 µM and the GI50 (A498 renal) was 1.73 µM. It also gave a TGI (A498 renal) of 3.3 µM, a GI50 (A549 NSCLC) of 1.67 µM and a TGI (A549 NSCLC) of 3.41 µM. The GI50 (ACHN renal) was 2.04 µM, the TGI (ACHN renal) was 4.45 µM and the GI50 (BT-549 breast) was 1.55 µM. It also gave a TGI (BT-549 breast) of 2.98 µM, a GI50 (CAKI-1 renal) of 1.66 µM and a TGI (CAKI-1 renal) of 3.22 µM. For the same compound, the GI50 (CCRF-CEM leukemia) was 1.85 µM, the TGI (CCRF-CEM leukemia) was 3.26 µM and the GI50 (COLO 205 colon) was 0.442 µM. It also gave a TGI (COLO 205 colon) of 1.64 µM, a GI50 (DU-145 prostate) of 3.02 µM and a TGI (DU-145 prostate) of 11.9 µM. It also gave a GI50 (EKVX NSCLC) of 1.36 µM, a TGI (EKVX NSCLC) of 3.74 µM and a GI50 (HCC-2998 colon) of 1.29 µM. It also gave a TGI (HCC-2998 colon) of 2.63 µM, a GI50 (HCT-116 colon) of 1.56 µM and a TGI (HCT-116 colon) of 2.99 µM. For the same compound, the GI50 (HCT-15 colon) was 1.57 µM, the TGI (HCT-15 colon) was 3.28 µM and the GI50 (HL-60(TB) leukemia) was 0.324 µM. The TGI (HL-60(TB) leukemia) was 1.05 µM, the GI50 (HOP-62 NSCLC) was 1.87 µM and the TGI (HOP-62 NSCLC) was 3.49 µM. The GI50 (HOP-92 NSCLC) was 1.46 µM, the TGI (HOP-92 NSCLC) was 2.82 µM and the GI50 (HS 578T breast) was 1.58 µM. For the same compound, the TGI (HS 578T breast) was 2.95 µM, the GI50 (HT29 colon) was 0.769 µM and the TGI (HT29 colon) was 2.06 µM. For the same compound, the GI50 (IGROV1 ovarian) was 3.46 µM, the TGI (IGROV1 ovarian) was 12.3 µM and the GI50 (K-562 leukemia) was 1.56 µM. It also gave a TGI (K-562 leukemia) of 2.95 µM, a GI50 (KM12 colon) of 1.91 µM and a TGI (KM12 colon) of 4.16 µM. For the same compound, the GI50 (LOX IMVI melanoma) was 1.67 µM, the TGI (LOX IMVI melanoma) was 3.05 µM and the GI50 (M14 melanoma) was 1.4 µM. It also gave a TGI (M14 melanoma) of 2.72 µM, a GI50 (MALME-3M melanoma) of 1.25 µM and a TGI (MALME-3M melanoma) of 2.52 µM. It also gave a GI50 (MCF7 breast) of 0.353 µM, a TGI (MCF7 breast) of 1.69 µM and a GI50 (MDA-MB-231 breast) of 2.05 µM. The TGI (MDA-MB-231 breast) was 4.56 µM, the GI50 (MDA-MB-435 melanoma) was 1.49 µM and the TGI (MDA-MB-435 melanoma) was 2.84 µM. It also gave a GI50 (MDA-MB-468 breast) of 1.52 µM, a TGI (MDA-MB-468 breast) of 2.97 µM and a GI50 (MOLT-4 leukemia) of 1.78 µM. The TGI (MOLT-4 leukemia) was 3.17 µM, the GI50 (NCI-H226 lung) was 1.47 µM and the TGI (NCI-H226 lung) was 4.31 µM. For the same compound, the GI50 (NCI-H23 lung) was 1.38 µM, the TGI (NCI-H23 lung) was 3.56 µM and the GI50 (NCI-H322M lung) was 1.86 µM. The TGI (NCI-H322M lung) was 4.94 µM, the GI50 (NCI-H460 NSCLC) was 1.32 µM and the TGI (NCI-H460 NSCLC) was 2.75 µM. For the same compound, the GI50 (NCI-H522 lung) was 1.9 µM, the TGI (NCI-H522 lung) was 3.5 µM and the GI50 (NCI/ADR-RES ovarian) was 2.29 µM. It also gave a TGI (NCI/ADR-RES ovarian) of 6.64 µM, a GI50 (OVCAR-3 ovarian) of 1.74 µM and a TGI (OVCAR-3 ovarian) of 3.43 µM. It also gave a GI50 (OVCAR-4 ovarian) of 2.03 µM, a TGI (OVCAR-4 ovarian) of 5.18 µM and a GI50 (OVCAR-5 ovarian) of 1.52 µM. The TGI (OVCAR-5 ovarian) was 3.81 µM, the GI50 (OVCAR-8 ovarian) was 1.79 µM and the TGI (OVCAR-8 ovarian) was 3.51 µM. For the same compound, the GI50 (PC-3 prostate) was 1.78 µM, the TGI (PC-3 prostate) was 3.51 µM and the GI50 (RPMI-8226 leukemia) was 1.72 µM. It also gave a TGI (RPMI-8226 leukemia) of 3.11 µM, a GI50 (RXF 393 renal) of 1.48 µM and a TGI (RXF 393 renal) of 2.83 µM. The GI50 (SF-268 CNS) was 1.76 µM, the TGI (SF-268 CNS) was 3.19 µM and the GI50 (SF-295 CNS) was 1.76 µM. It also gave a TGI (SF-295 CNS) of 3.22 µM, a GI50 (SF-539 CNS) of 1.8 µM and a TGI (SF-539 CNS) of 3.21 µM. It also gave a GI50 (SK-MEL-2 melanoma) of 1.06 µM, a TGI (SK-MEL-2 melanoma) of 2.26 µM and a GI50 (SK-MEL-28 melanoma) of 1.57 µM. It also gave a TGI (SK-MEL-28 melanoma) of 2.92 µM, a GI50 (SK-MEL-5 melanoma) of 1.2 µM and a TGI (SK-MEL-5 melanoma) of 2.45 µM. It also gave a GI50 (SK-OV-3 ovarian) of 1.74 µM, a TGI (SK-OV-3 ovarian) of 3.29 µM and a GI50 (SN12C renal) of 1.77 µM. It also gave a TGI (SN12C renal) of 3.42 µM, a GI50 (SNB-19 CNS) of 3 µM and a TGI (SNB-19 CNS) of 8.69 µM. The GI50 (SNB-75 CNS) was 1.9 µM, the TGI (SNB-75 CNS) was 3.34 µM and the GI50 (SW-620 colon) was 1.41 µM. It also gave a TGI (SW-620 colon) of 2.96 µM, a GI50 (T-47D breast) of 1.54 µM and a TGI (T-47D breast) of 3.04 µM. For the same compound, the GI50 (TK-10 renal) was 1.6 µM, the TGI (TK-10 renal) was 3.17 µM and the GI50 (U251 glioblastoma) was 1.89 µM. For the same compound, the TGI (U251 glioblastoma) was 3.38 µM, the GI50 (UACC-257 melanoma) was 1.48 µM and the TGI (UACC-257 melanoma) was 2.81 µM. For the same compound, the GI50 (UACC-62 melanoma) was 1.69 µM, the TGI (UACC-62 melanoma) was 3.07 µM and the GI50 (UO-31 renal) was 1.52 µM. The TGI (UO-31 renal) was 2.88 µM.
